Results reported in article PMC12036875, “Mitochondria-targeting natural product rhein conjugated with dichloroacetate as the dual inhibitor of glycolysis and oxidative phosphorylation to off energize cancer cells and induce ROS storm” (Theranostics, 2025).

Columns and labels:
4T1 cells = experiment: Intracellular and extracellular lactate determination; assay type: cell-based, Mouse; conditions: 6.25 μM, 24 h
Method: Next, the end product of glycolysis, lactate, was analyzed in 4T1 cells to further confirm the efficacy of the Rhein-DCA conjugate in blocking glycolytic metabolism. […] Lactate will be released from cells and condense in the TME due to the sustained aerobic glycolysis. To determine whether the decline in intracellular lactate level was caused by an increased extracellular secretion or a disconnect in glycolysis pathway, we further detected the lactate content in the culture medium (Figure 2E). The changes in extracellular lactate level were consistent with those observed intracellularly across the tested groups.
4T1 cells were seeded into 6-well plates at a density of 10 × 10^4 cells per well and cultured for 24 h. Cells were exposed to PBS, rhein, DCA, R + D and Rhein-DCA conjugate at a concentration of 6.25 μM for 24 h. (1) Medium: The medium from different groups was subjected to centrifugation at 9391 G for 10 min, 100 μL of supernatant was obtained, and 1 mL of extraction solution I was added. (2) Cells: After being washed twice with PBS, cells were harvested and suspended in extraction solution I (1 mL) for further lysis with sonication in ice bath (power 300 W, the duration of sonication is 3 s, the interval duration of 7 s, total sonication time of 3 min). […] Finally, the absorption value of each sample was detected with microplate reader at 570 nm.

[1] = Stability in simulated gastrointestinal environment (HPLC); assay type: physicochemical; conditions: 37°C, within 2 h
Method: The proven oral administration experiences of rhein and DCA validated the feasibility and potential of our research on the oral administration of their derivative, Rhein-DCA [34], [35]. We first evaluated the stability of Rhein-DCA by simulating gastric acid (pH 1.5) and intestinal (pH 6.8) conditions in vitro with HPLC. The stability of the Rhein-DCA was as high as 85% within 2 h, indicating the stable of Rhein-DCA in gastrointestinal environment, and it was capable of being efficiently absorbed via the gastrointestinal tract (Figure S21).
Prepare phosphate buffer solutions at pH 1.5 (gastric simulation) and pH 6.8 (intestinal simulation). Rhein-DCA was added to the buffer and incubated at 37°C. Samples were collected at 0, 2, 4, and 6 h for HPLC analysis. Calculate stability (%) = (Ct / C0) × 100, where Ct and C0 are concentrations at time t h and 0 h, respectively.

4T1 tumor metastasis = experiment: Lung and liver metastasis (images, H&E); assay type: in vivo, Balb/c mice; conditions: 20 mg/kg oral, 24 days
Method: Correspondingly, the lung and liver tissues, which are the most common sites for primary tumor metastasis, were obtained and imaged, and then subjected to H&E staining for histopathological examination. […] The major organs (heart, liver, spleen, lung and kidney) were also excised for photographing and H&E staining. The blood biochemistry indexes, including ALT, AST, CREA and UREA were tested.

[2] = Pharmacokinetic study after oral administration; assay type: in vivo, Sprague-Dawley (SD) rats; conditions: SD rats, I.G. 20 mg/kg, mean ± S.D., n = 3
Method: HPLC was conducted to evaluate the absorption and distribution of Rhein-DCA conjugate in […] after oral administration. Rhein-DCA was orally administered to Sprague-Dawley (SD) rats at 20 mg/kg, and the concentration of the drug in the blood samples was serially measured at predefined time points.
HPLC was used to evaluate the absorption and distribution of Rhein-DCA in […] after oral administration. Rhein-DCA was orally administered to Sprague-Dawley (SD) rats at 20 mg/kg. and the blood samples were serially collected at predefined time points (0.5, 1.5, 2, 3, 4, 5, 6, 8, 10 and 24 h). Centrifuge the blood at 3000 G for 10 min to separate serum, and the serum was mixed with methanol (1:3, v/v), vortexed for 3 min, and centrifuged at 13000 G for 10 min. The supernatant was filtered through a 0.22 µm membrane for HPLC assay. Pharmacokinetic parameters were derived using DAS 2.0 software with non-compartmental analysis (NCA).

[3] = tested on: mitochondria of 4T1 cells; experiment: Cell uptake and organelle localization (CLSM); assay type: cell-based, Mouse; conditions: 24 h
Description: In order to evaluate the positive effect of the conjugation of rhein and DCA on anti-cancer aspect, cellular uptake of Rhein-DCA conjugate in 4T1 cells was first examined by confocal laser scanning microscope (CLSM). Based on the fluorescence properties of Rhein-DCA conjugate, green fluorescence signal indicated its distribution within the cells. […] The green fluorescence of rhein was highly overlapped with the red fluorescence of mitochondria (Mito tracker red) and merged into yellow fluorescence in rhein and Rhein-DCA groups.
4T1 cells were seeded in confocal dishes at a density of 10 × 10^4 cells per dish and cultured in the incubator for 24 h. And the cells were further treated with Rhein-DCA conjugate at a concentration of 6.25 μM for 0, 2, 6, 12 or 24 h, respectively. Thereafter, the cells were washed twice with PBS and stained with Hoechst 33342 (10 μg/mL) for 15 min in the dark at room temperature, followed by another two washes with PBS. Finally, the fluorescence intensity of cells was monitored with confocal microscope with excitation wavelengths (Ex) of 488 nm, emission wavelengths (Em) of 525 ± 25 nm, and Ex of 405 nm, Em of 447 ± 30 nm, respectively. […]

With `O=C(OCCOC(=O)C(Cl)Cl)c1cc(O)c2c(c1)C(=O)c1cccc(O)c1C2=O` [Rhein-DCA] the intracellular lactate content (4T1 cells) was “noticeable descent”, the “stability in simulated gastric acid (pH 1.5) and intestinal (pH 6.8) conditions” value [1] was 85% and the “metastatic lesions in lungs and livers” value (4T1 tumor metastasis) was “significantly decreased the number and size of metastatic lesions”. For the same compound, the CL [2] was 37.5 mL/min/kg, the Vd [2] was 17.11 ± 8.08 L/kg and the AUC(0-inf) ([2]; Sprague-Dawley, rat, serum, po) was 8980 ng·h/mL. It also gave an AUC(0-t) ([2]; Sprague-Dawley, rat, serum, po) of 8220 ± 330 ng·h/mL, a Cmax ([2]; Sprague-Dawley, rat, serum, po) of 2680 ng/mL and a Tmax ([2]; Sprague-Dawley, rat, serum, po) of 1.5 h. For the same compound, the half-life ([2]; Sprague-Dawley, rat, serum, po) was 5.54 h and the “co-localization with lysosomes (Lyso tracker red) and endoplasmic reticulum (ER tracker red)” value [3] was “almost did not co-localize”.
